Assay results published in patent US8299056B2 (Signal Pharmaceuticals, LLC, priority 2008, dated 2012).
Where two headings read alike, the source gives them in different places.

Biological target: T1, Syk (Homo sapiens, UniProt P43405)
T1 construct: purchased Carna Biosciences
Assay: Syk HTRF assay
Format: biochemical
Outline: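 HTRF kinase assay in HEPES pH 7.6 buffer with MgCl2, DTT and Triton X100; start mix of 87.5 μM ATP and 80 nM biotinylated peptide, 1 h at room temperature. EDTA stop, then Eu-anti-phosphotyrosine/streptavidin-DyLight 647 detection, read as 665/615 nm emission ratio.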

[1] = IC50 activity level, read-out: Activity Level
[2] = read-out: Activity Level (Syk HTRF assay IC50)
[3] = activity levels A-D, read-out: Activity Level (IC50 in the Syk HTRF assay)

Row | IC50 [1] [nM] | IC50 [2] [nM] | SMILES | also measured
1 | 1000 to 10000 |  | Cc1nnc2cc(Nc3nc4cccc(CC5CCOCC5)n4n3)ccn12 [Example 538, 3-methyl-N-(5-((tetrahydro-2H-pyran-4-yl)methyl)-[1,2,4]triazolo[1,5-a]pyridin-2-yl)-[1,2,4]triazolo[4,3-a]pyridin-7-amine] | 
2 |  | 1000 to 10000 | c1ccc(-c2cccc3nc(Nc4ccc5cnoc5c4)nn23)cc1 [compound 48, N-(5-phenyl-[1,2,4]triazolo[1,5-a]pyridin-2-yl)benzo[d]isoxazol-6-amine] | 
3 | 0.005 to 250 |  | Cc1n[nH]c2cc(Nc3nc4cccc(CC(C)CO)n4n3)ccc12 (stereo in doubt) [Example 555, (S)-2-methyl-3-(2-(3-methyl-1H-indazol-6-ylamino)-[1,2,4]triazolo[1,5-a]pyridin-5-yl)propan-1-ol] | 
4 | 1000 to 10000 |  | c1ccc(Nc2nc3cccc(-c4ccnc(N5CCNCC5)c4)n3n2)cc1 [Example 520, N-phenyl-5-(2-(piperazin-1-yl)pyridin-4-yl)-[1,2,4]triazolo[1,5-a]pyridin-2-amine] | 
5 |  | 500 to 1000 | Cc1n[nH]c2ccc(Nc3nc4cccc(NC5CCOCC5)n4n3)cc12 [compound 117] | 
6 |  | 1000 to 10000 | CN1C(=O)Cc2ccc(Nc3nc4cccc(CC5CCOCC5)n4n3)cc21 [compound 118, 1-methyl-6-(5-((tetrahydro-2H-pyran-4-yl)methyl)-[1,2,4]triazolo[1,5-a]pyridin-2-ylamino)indolin-2-one] | 
7 | 1000 to 10000 |  | c1cc(NC2CCOCC2)n2nc(Nc3ccc(-c4nc[nH]n4)cc3)nc2c1 [Example 565, N^2-(4-(1H-1,2,4-triazol-3-yl)phenyl)-N^5-(tetrahydro-2H-pyran-4-yl)-[1,2,4]triazolo[1,5-a]pyridine-2,5-diamine] | 
8 |  | 500 to 1000 | Nc1cc(Nc2nc3cccc(-c4ccccc4)n3n2)ccn1 [compound 40] | 
9 |  |  | CNC(=O)c1ccc(Nc2nc3cccc(CCC4CCNCC4)n3n2)cc1 [Example 254, N-methyl-4-(5-(2-(piperidin-4-yl)ethyl)-[1,2,4]triazolo[1,5-a]pyridin-2-ylamino)benzamide] | IC50 [3]: 500 to 1000 nM
10 |  | 0.005 to 250 | Cn1nc(N)c2ccc(Nc3nc4cccc(-c5ccccc5)n4n3)cc21 [compound 35] | 
11 |  |  | FC(F)(F)c1ccc(Nc2nc3cccc(CN4CCNCC4)n3n2)cc1 [Example 393, 5-(piperazin-1-ylmethyl)-N-(4-(trifluoromethyl)phenyl)-[1,2,4]triazolo[1,5-a]pyridin-2-amine] | IC50 [3]: 0.005 to 250 nM
12 | 1000 to 10000 |  | CC(C)C(=O)Nc1cccc2nc(Nc3ccccc3)nn12 [Example 526, N-(2-(phenylamino)-[1,2,4]triazolo[1,5-a]pyridin-5-yl)isobutyramide] | 
13 |  | 0.005 to 250 | Cc1cc(Nc2nc3cccc(N[C@H]4CC[C@@H](O)CC4)n3n2)cnc1N1CCOCC1 [compound 105, cis-4-(2-(5-methyl-6-morpholinopyridin-3-ylamino)-[1,2,4]triazolo[1,5-a]pyridin-5-ylamino)cyclohexanol] | 
14 |  |  | CC(C)(O)c1ccc(Nc2nc3cccc(N[C@H]4CC[C@@H](O)CC4)n3n2)cn1 [Example 359, cis-4-(2-(6-(2-hydroxypropan-2-yl)pyridin-3-ylamino)-[1,2,4]triazolo[1,5-a]pyridin-5-ylamino)cyclohexanol] | IC50 [3]: 1000 to 10000 nM
15 | 0.005 to 250 |  | CC(C)Nc1cccc2nc(Nc3ccc4c(c3)NC(=O)C4(C)C)nn12 [Example 549, 6-(5-(isopropylamino)-[1,2,4]triazolo[1,5-a]pyridin-2-ylamino)-3,3-dimethylindolin-2-one] | 
16 |  | 0.005 to 250 | OCc1nc2ccc(Nc3nc4cccc(N[C@H]5CC[C@@H](O)CC5)n4n3)cc2[nH]1 [Example 195, cis-4-(2-(2-(hydroxymethyl)-1H-benzo[d]imidazol-6-ylamino)-[1,2,4]triazolo[1,5-a]pyridin-5-ylamino)cyclohexanol] | 
17 | 1000 to 10000 |  | NCCCc1cccc2nc(Nc3ccccc3)nn12 [Example 498, 5-(3-aminopropyl)-N-phenyl-[1,2,4]triazolo[1,5-a]pyridin-2-amine] | 
